Measured values reported in patent US9018233B2, “Diaminoaryl derivatives substituted by carbamate and pesticidal composition containing same” (Kyung Nong Corporation, priority 2012, dated 2015).
Like-named read-outs stand apart in the source and are kept apart here.

Test system: Tobacco Cutworm Moth (Spodoptera litura)
Experiment: Insecticidal activities against tobacco cutworm moth measured by leaf-dip method
Type: in vivo
Conditions: 96 h, read-out: percent control value
Procedure: In this test, larvae descended from tobacco cutworm moths (Spodoptera litura), which had been collected in 2009 near Gyeongju area and reared in the laboratory, were used. […] […] The Petri dish was stored under light condition 16:8 hours, 25±1° C. and RH 50-60%, and then the number of larvae survived were counted 24, 48, 72 and 96 hours after the inoculation. As shown in Equations 1 and 2 above, the survival rate was calculated by calibrating the larvae density after treatment with the larvae density before treatment, and the control value is calculated by subtracting the survival rate in the treatment group from the survival rate in the control group and dividing the result by the survival rate in the control group.

[1] = 100 ppm, after 4 days, 2nd instar larvae, leaf-dip

## CC(C)COC(=O)Nc1cc(Cl)cc(Cl)c1NC(=O)c1cc(Br)nn1-c1ncccc1Cl [Example 4, isobutyl (2-(3-bromo-1-(3-chloropyridin-2-yl)-1H-pyrazole-5-carboxamido)-3,5-dichlorophenyl)carbamate]
[1]
  pest or weed control at 100 ppm: ≥ 80%

## COC(=O)Nc1cc(Cl)cc(C)c1NC(=O)c1cc(Br)nn1-c1ncccc1Cl [Example 11, methyl (2-(3-bromo-1-(3-chloropyridin-2-yl)-1H-pyrazole-5-carboxamido)-5-chloro-3-methylphenyl)carbamate]
[1]
  pest or weed control at 100 ppm: ≥ 80%

## CCOC(=O)Nc1cc(Cl)cc(C)c1NC(=O)c1cc(Br)nn1-c1ncccc1Cl [Example 21, ethyl (2-(3-bromo-1-(3-chloropyridin-2-yl)-1H-pyrazole-5-carboxamido)-5-chloro-3-methylphenyl)carbamate]
[1]
  pest or weed control at 100 ppm: ≥ 80%

## CCCOC(=O)Nc1cc(Cl)cc(C)c1NC(=O)c1cc(Br)nn1-c1ncccc1Cl [Example 22, propyl (2-(3-bromo-1-(3-chloropyridin-2-yl)-1H-pyrazole-5-carboxamido)-5-chloro-3-methylphenyl)carbamate]
[1]
  pest or weed control at 100 ppm: ≥ 80%

## COC(=O)Nc1cc(C#N)cc(C)c1NC(=O)c1cc(Br)nn1-c1ncccc1Cl [Example 33, methyl (2-(3-bromo-1-(3-chloropyridin-2-yl)-1H-pyrazole-5-carboxamido)-5-cyano-3-methylphenyl)carbamate]
[1]
  pest or weed control at 100 ppm: ≥ 80%

## COC(=O)Nc1cc(Br)cc(Br)c1NC(=O)c1cc(Br)nn1-c1ncccc1Cl [Example 40, methyl (3,5-dibromo-2-(3-bromo-1-(3-chloropyridin-2-yl)-1H-pyrazole-5-carboxamido)phenyl)carbamate]
[1]
  pest or weed control at 100 ppm: ≥ 80%

## CC(C)COC(=O)Nc1cc(Br)cc(Br)c1NC(=O)c1cc(Br)nn1-c1ncccc1Cl [Example 41, isobutyl (3,5-dibromo-2-(3-bromo-1-(3-chloropyridin-2-yl)-1H-pyrazole-5-carboxamido)phenyl)carbamate]
[1]
  pest or weed control at 100 ppm: ≥ 80%

## COC(=O)Nc1cc(C(F)(F)F)cc(Cl)c1NC(=O)c1cc(Br)nn1-c1ncccc1Cl [Example 48, methyl (2-(3-bromo-1-(3-chloropyridin-2-yl)-1H-pyrazole-5-carboxamido)-3-chloro-5-(trifluoromethyl)phenyl)carbamate]
[1]
  pest or weed control at 100 ppm: ≥ 80%

## COC(=O)Nc1cc(C(F)(F)F)cc(Br)c1NC(=O)c1cc(Br)nn1-c1ncccc1Cl [Example 51, methyl (3-bromo-2-(3-bromo-1-(3-chloropyridin-2-yl)-1H-pyrazole-5-carboxamido)-5-(trifluoromethyl)phenyl)carbamate]
[1]
  pest or weed control at 100 ppm: ≥ 80%

## COC(=O)Nc1cccc(C)c1NC(=O)c1cc(Br)nn1-c1ncccc1Cl [Example 54, Methyl (2-(3-bromo-1-(3-chloropyridin-2-yl)-1H-pyrazole-5-carboxamido)-3-methylphenyl)carbamate]
  pest or weed control at 100 ppm: ≥ 80%

## COC(=O)Nc1cc([N+](=O)[O-])cc(C)c1NC(=O)c1cc(Br)nn1-c1ncccc1Cl [Example 55, Methyl (2-(3-bromo-1-(3-chloropyridin-2-yl)-1H-pyrazole-5-carboxamido)-3-methyl-5-nitrophenyl)carbamate]
[1]
  pest or weed control at 100 ppm: ≥ 80%

## COC(=O)Nc1cc(C#N)cc(C)c1NC(=O)c1cc(Cl)nn1-c1ncccc1Cl [Example 56, methyl (2-(3-chloro-1-(3-chloropyridin-2-yl)-1H-pyrazole-5-carboxamido)-5-cyano-3-methylphenyl)carbamate]
[1]
  pest or weed control at 100 ppm: ≥ 80%

## COC(=O)Nc1cc(C#N)cc(C)c1NC(=O)c1cc(C#N)nn1-c1ncccc1Cl [Example 57, methyl (2-(1-(3-chloropyridin-2-yl)-3-cyano-1H-pyrazole-5-carboxamido)-5-cyano-3-methylphenyl)carbamate]
[1]
  pest or weed control at 100 ppm: ≥ 80%

## COC(=O)Nc1cc(C#N)cc(C)c1NC(=O)c1cc(OC)nn1-c1ncccc1Cl [Example 58, methyl (2-(1-(3-chloropyridin-2-yl)-3-methoxy-1H-pyrazole-5-carboxamido)-5-cyano-3-methylphenyl)carbamate]
[1]
  pest or weed control at 100 ppm: ≥ 80%

## COC(=O)Nc1cc(C#N)cc(C)c1NC(=O)c1cc(OCC(F)(F)F)nn1-c1ncccc1Cl [Example 60, methyl (2-(3-(2,2,2-trifluoroethoxy)-1-(3-chloropyridin-2-yl)-1H-pyrazole-5-carboxamido)-5-cyano-3-methylphenyl)carbamate]
[1]
  pest or weed control at 100 ppm: ≥ 80%

## COC(=O)Nc1cc(C#N)cc(C)c1NC(=O)c1cc(C(F)(F)F)nn1-c1ncccc1Cl [Example 61, methyl (2-(1-(3-chloropyridin-2-yl)-3-(trifluoromethyl)-1H-pyrazole-5-carboxamido)-5-cyano-3-methylphenyl)carbamate]
[1]
  pest or weed control at 100 ppm: ≥ 80%

## COC(=O)Nc1cc(C#N)cc(C)c1NC(=O)c1cc(C(F)(F)F)nn1-c1ccccc1Cl [Example 62, methyl (2-(1-(2-chlorophenyl)-3-(trifluoromethyl)-1H-pyrazole-5-carboxamido)-5-cyano-3-methylphenyl)carbamate]
[1]
  pest or weed control at 100 ppm: ≥ 80%

## CCOC(=O)Nc1cc(C#N)cc(C)c1NC(=O)c1cc(Br)nn1-c1ncccc1Cl [Example 63, ethyl (2-(3-bromo-1-(3-chloropyridin-2-yl)-1H-pyrazole-5-carboxamido)-5-cyano-3-methylphenyl)carbamate]
[1]
  pest or weed control at 100 ppm: ≥ 80%

## Cc1cc(C#N)cc(NC(=O)OCCCl)c1NC(=O)c1cc(Br)nn1-c1ncccc1Cl [Example 64, 2-chloroethyl (2-(3-bromo-1-(3-chloropyridin-2-yl)-1H-pyrazole-5-carboxamido)-5-cyano-3-methylphenyl)carbamate]
[1]
  pest or weed control at 100 ppm: ≥ 80%
